This is an account of results in the Bradley open melting point set (2014).

SMILES strings stand for the structures. “And” between values parts separate entries of the source, which are not always exact repeats. Identical values can stand only once.

In general, melting point refers to the temperature of the solid-liquid transition. Regarding `O=C(O)c1ccc(CO)cc1` [p-hydroxymethyl_benzoic_acid], the melting point came to 182 °C.
`CCc1ccccc1CC` [o-diethylbenzene] registered a melting point of -31 °C.
As to `C[C@@H]1CCC[C@H](C)C1` [cis-1,3-dimethylcyclohexane], the melting point was -76 °C.
For the molecule `C1CCC(NC2CCCCC2)CC1` [N-Cyclohexylcyclohexanamine], the melting point is -1 °C.
Molecule `[2H]c1c([2H])c([2H])c2c([2H])c([2H])c([2H])c([2H])c2c1[2H]` [(~2~H_8_)Naphthalene] yielded a melting point of 82 °C.
`C/C=C/CCCCC` [trans-2-octene]: the melting point is -88 °C.
The molecule `B1Oc2ccccc2O1` [catecholborane] showed a melting point of 12 °C.
The molecule `CC(O)CN(C)C` (stereo not drawn) [1-dimethylamino-2-propanol] registered a melting point of -85 °C.
The molecule `CC(=O)OC1C(C)OC(OCc2ccccc2)C(OC(C)=O)C1OC(C)=O` (stereo not drawn) [benzyl 2,3,4-tri-O-acetyl-6-deoxyhexopyranoside] returned a melting point of 112 °C.
With `CCCCNCCCC` [N-Butylbutan-1-amine] the figure was -60 °C; with `Cc1c(C)c(C)c(C=O)c(C)c1C` [Pentamethylbenzaldehyde], 133 °C.
`CC(C)/C=N/Nc1ccc([N+](=O)[O-])cc1[N+](=O)[O-]` [(2E)-1-(2,4-Dinitrophenyl)-2-(2-methylpropylidene)hydrazine] gave a melting point of 186 °C.
`N#CC1(O)CCN(Cc2ccccc2)CC1` [1-benzyl-4-cyano-4-hydroxypiperidine]: the melting point came to 97 °C.
Take `Cc1ccccc1-c1ccccc1` [1-methyl-2-phenylbenzene]: the melting point is 0 °C.
Take `O=C4\C=C2/[C@]([C@H]1CC[C@@]3([C@@](O)(C(=O)CO)CC[C@H]3[C@@H]1CC2)C)(C)CC4` [cortexolone]: the melting point worked out at 208 °C.
With `CC(=O)Oc1c(-c2ccccc2)n(C(C)=O)c2cc([N+](=O)[O-])c(/C(Cl)=C/c3ccccc3)cc12` the figure was 58 °C.
As for `CCCSc1ccc2[nH]c(NC(=O)OC)nc2c1` [albendazole], the figure is 208 °C.
Turning to `COC(=O)c1cncc(Br)c1` [methyl 5-bromonicotinate], the melting point turned out to be 97 °C.
`O=C(O)c1c(F)cccc1C(F)(F)F` [2-fluoro-6-(trifluoromethyl)benzoic acid]: the melting point amounted to 86 °C.
In turn, `O=[N+]([O-])/C=C/c1c(Cl)cccc1Cl` [2,6-dichloro-beta-nitrostyrene] gave a melting point of 65 °C.
As for `O=[N+]([O-])c1ccc2c(c1)OCCOCCOCCOCCO2` [4-nitrobenzo-15-crown-5], the figure is 94 °C.
As for `BrC(c1ccccc1)c1ccccc1` [benzhydryl bromide], the figure is 39 °C; as for `c1ccoc1` [furan], -85 °C.
With `CCC(C(=O)O)c1ccccc1` (stereo not drawn) [2-phenylbutyric acid] the figure was 38 °C; with `O=C1Nc2ccccc2C[C@H]1c1ccccc1F` [3-(2-Fluorophenyl)-1,2,3,4-tetrahydro-2-quinolone], 191 °C.
With `O=C1c2ccccc2Cc2ccccc21` [Anthracen-9(10H)-one], the melting point came out at 156 °C.
With `BrCc1nc2ccccc2s1` [2-(bromomethyl)benzothiazole] the figure was 48 °C; with `NCCNc1ccc([N+](=O)[O-])cn1` [N-(5-nitro-2-pyridyl)-1,2-ethanediamine], 127 °C.
Turning to `CC(=O)c1ccc(Cl)cc1O` [4'-chloro-2'-hydroxyacetophenone], the melting point was 29 °C.
With `COC(=O)C1(C)C(C(C)=O)=Nc2ccccc21` (stereo not drawn) [methyl 2-acetyl-3-methyl-3H-indole-3-carboxylate] the figure was 103 °C; with `CC1(C(=O)O)CCCCC1` [1-methylcyclohexanecarboxylic acid], 38 °C.
`O=C1C=CC(=O)C=C1` [1,4-Benzoquinone] showed a melting point of 114 °C.
In turn, `Cc1ccc(CCl)cc1` [4-methylbenzyl chloride] gave a melting point of 5 °C.
`COc1ccccc1` [Anisole] came in with a melting point of -37 °C.
As for `Clc1ccc(Cl)c(Cl)c1` [1,2,4-trichlorobenzene], the figure is 17 °C.
With `Nc1ncnc2c1ncn2[C@@H]1O[C@H](CO)[C@@H](O)[C@H]1O` [adenosine] the figure was 235 °C; with `CCCCCCCCCCCBr` [1-bromoundecane], -9 °C.
With `CC(C)C=O` [isobutyraldehyde] the figure was -65 °C; with `Cc1ccccc1C(=O)O` [2-Methylbenzoic acid], 105 °C.
Consider `Nc1c(Cl)cccc1Cl` [2,6-dichloroaniline], for which the melting point is 39 °C.
The molecule `ICCI` [1,2-diiodoethane] returned a melting point of 82 °C.
`CC1=C(c2ccccc2)c2ccccc2C1=O` [2-methyl-3-phenyl-1H-inden-1-one] returned a melting point of 87 °C.
In the case of `ClCc1ccccc1CCl` [a,a'-dichloro-o-xylene], the melting point was 56 °C.
With `NC(=O)NNc1ccccc1` [1-phenylsemicarbazide], the melting point amounted to 172 °C.
Regarding `OCCNc1ccccc1` [N-phenylethanolamine], the melting point is -30 °C.
`O=S(=O)(Cl)c1cc(S(=O)(=O)c2ccccc2)cs1` [4-(phenylsulfonyl)thiophene-2-sulfonyl chloride] registered a melting point of 102 °C.
Consider `CC12CCCCC1CCC1C2CCC2(C)C1CCC2(O)C#Cc1ccccc1` (stereo not drawn) [21-phenylpregn-20-yn-17-ol], for which the melting point amounted to 103 °C.
As to `O=C(O)C1CCCCC1` [cyclohexanecarboxylic acid], the melting point was 31.5 °C.
With `O=C(/C=C/c1ccccc1)c1ccccc1O` [2'-hydroxychalcone] the figure was 90 °C; with `NNC(=O)c1ccc(N)cc1` [4-aminobenzhydrazide], 228 °C.
`OC1c2ccccc2-c2ccccc21` [9-fluorenol] yielded a melting point of 156 °C.
Regarding `S=C=Nc1cccc2ccccc12` [1-Isothiocyanatonaphthalene], the melting point amounted to 58 °C.
For `O=[N+]([O-])c1ccc(Cl)c(Cl)c1` [3,4-dichloronitrobenzene], the melting point is 41 °C (2×) and 41.2 °C.
With `N#Cc1ccc(C(c2ccc(C#N)cc2)n2cncn2)cc1` [letrozole], the melting point was 181 °C.
Consider `O=C(O)c1ccc(O)cc1` [4-hydroxybenzoic_acid], for which the melting point is 217 °C.
In turn, `Cc1cc(C)c(Br)c(C)c1` [2-bromomesitylene] had a melting point of 2 °C.
Take `CC(C)c1cccc(B(O)O)c1` [3-isopropylbenzeneboronic acid]: the melting point was determined as 78 °C.
With `[2H]c1c([2H])c([2H])c(-c2c([2H])c([2H])c(-c3c([2H])c([2H])c([2H])c([2H])c3[2H])c([2H])c2[2H])c([2H])c1[2H]` [(~2~H_14_)-1,1':4',1''-Terphenyl] the figure was 213 °C; with `Cc1cc(Cl)cc(C=O)c1O` [5-chloro-2-hydroxy-3-methylbenzaldehyde], 59 °C.
Take `COC(=O)c1cccc([N+](=O)[O-])c1` [methyl 3-nitrobenzoate]: the melting point turned out to be 79 °C.
As for `Cc1ccccc1-c1nnn[nH]1` [5-(2-methylphenyl)-1h-tetrazole], the figure is 153 °C; as for `CC(=O)OCCOC(C)=O` [ethylene_glycol_diacetate], -41 °C; as for `c1ccsc1` [thiophene], -38 °C (3×) and -38.2 °C and -38.3 °C (2×).
`CN(C)C(=N)NC(=N)N` [Metformin]: the melting point is 224 °C.
Molecule `[O-][n+]1ccc2ccccc2c1` [isoquinoline n-oxide] came in with a melting point of 104 °C.
In the case of `COC(=O)c1ccc(O)cc1` [methyl 4-hydroxybenzoate], the melting point is 131 °C and 127 °C.
`O=C(O)c1ccc(F)cc1` [4-fluorobenzoic acid]: the melting point amounted to 185 °C.
`CCCCOCCOCCOC(C)=O` [2-(2-n-butoxyethoxy)ethyl acetate]: the melting point was -32 °C.
Regarding `O=C(O)c1ccc(C(=O)C(F)(F)F)cc1` [4-(trifluoroacetyl)benzoic acid], the melting point is 178 °C.
`CC(N)C(=O)O` (stereo not drawn) [Alanine] had a melting point of 264 °C.
As for `c1ccc(CNCc2ccccc2)cc1` [dibenzylamine], the figure is -26 °C.
Consider `Cc1cc(Cl)c2ccccc2n1` [4-chloro-2-methylquinoline], for which the melting point was 25 °C.
As for `O=C1CCCCC1` [Cyclohexanone], the figure is -32 °C and -31 °C; as for `Cc1ccccc1Br` [2-bromotoluene], -27 °C; as for `COc1cccc(Cl)c1Cl` [2,3-dichloroanisole], 32 °C.
In the case of `Cc1ccc(F)cc1B(O)O` [5-fluoro-2-methylbenzeneboronic acid], the melting point turned out to be 149 °C.
With `Cc1cccc(N)c1C` [2,3-dimethylaniline] the figure was 3 °C.
In the case of `COC(=O)c1ccccc1S(=O)(=O)Cl` [methyl 2-(chlorosulfonyl)benzoate], the melting point was found to be 62 °C.
Molecule `CC(COc1ccccc1)NC(C)C(O)c1ccc(O)cc1` (stereo not drawn) [Isolait] came in with a melting point of 103 °C.
As for `CC(=O)Nc1ccccc1` [acetanilide], the melting point is 114 °C.
Turning to `COc1ccc(C(=O)O)cc1` [4-methoxybenzoic acid], the melting point amounted to 185 °C.
Molecule `Nc1c(Br)cc(Br)cc1C(=O)O` [2-amino-3,5-dibromobenzoic acid] had a melting point of 233 °C.
Turning to `Cc1c(C)c(C)c2c(c1C)CC2=O` [2,3,4,5-Tetramethylbicyclo(4.2.0)octa-1,3,5-trien-7-one], the melting point came out at 161 °C.
`O=C(O)CC(CC(=O)O)c1ccc(Cl)cc1` [3-(4-chlorophenyl)glutaric acid] gave a melting point of 166 °C.
`O=C(O)c1ccccc1B(O)O` [2-carboxybenzeneboronic acid] had a melting point of 220 °C.
`Nc1ccccc1-c1ccccc1` [Biphenyl-2-amine] registered a melting point of 51.5 °C.
In turn, `CC(C)(C)OC(=O)O/N=C(\C#N)c1ccccc1` [boc-on] returned a melting point of 88 °C.
With `CCN(C(C)C)C(C)C` [N-ethyldiisopropylamine] the figure was -46 °C.
